Measured values reported in publication PMC7926471 (Viruses, 2021).
“Also recorded” adds a separate entry of the source. Read-outs that look alike come from different tables or passages of the source.

Tests used:
HCoV-229E [1] = assay: Viral replication inhibition assay: HCoV-229E in MRC5 cells, PFU assay; format: cell-based, Human Coronavirus 229E
Vero E6 cells = assay: Cytotoxicity in Vero E6 cells (WST-1 assay among others); format: cell-based
HCoV-229E [2] = test system: HCoV-229E; design: method as in earlier work; settings: Huh7 cells; cited from earlier work
[3] = Cytotoxicity in MRC5 cells, MTT assay; settings: human
MRC5 cells = assay: Cytotoxicity in MRC5 cells, MTT assay; settings: drugs tested against HCoV-229E
MERS-CoV = settings: in vitro; cited from earlier work
in vitro = settings: human
[4] = Cytotoxicity in Vero E6 cells (WST-1 assay among others); format: cell-based; settings: African green monkey; Vero E6 cells, 48 h
SARS-CoV-2 [5] = settings: cited from earlier work
SARS-CoV-2 [6] = settings: especially in primary human bronchial epithelium cells; cited from earlier work
lung cancer = settings: nasal administration; cited from earlier work
[7] = single 500 mg oral dose; cited from earlier work
[8] = in vivo; cited from earlier work
SARS-CoV-2 [9] = assay: SARS-CoV-2 replication in Vero E6 cells, qRT-PCR of envelop (E) gene
SARS-CoV-2 [10] = settings: SARS-CoV-2 infection; cited from earlier work
[11] = test system: HCoV-229E, SARS-CoV and MERS-CoV; settings: cited from earlier work
[12] = Human coronavirus 229E, MRC5, 48 h, HCoV-229E in MRC5 cells, high titer MOI = 1, PFU assay after 48 h, read-out: EC50
[13] = SARS-CoV-2 in Vero E6 cells, qRT-PCR after 48 h

## CCN(CC)CCCC(C)Nc1ccnc2cc(Cl)ccc12 (stereo not shown) [Chloroquine, chloroquine diphosphate]
HCoV-229E [1]; HCoV-229E
  reduction of the viral titer: 60%
HCoV-229E [1]; [12]
  EC50: 0.005 mM
HCoV-229E [1]; MOI = 0.01, Figure 2
  HCoV-229E replication, low viral load (in words): inhibits HCoV-229E replication
HCoV-229E [1]; combinations of lopinavir/ritonavir, chloroquine, resveratrol, MOI 0.01, Figure 2B
  effect of combinatory treatment on HCoV-229E (in words): did not observe a synergistic effect
HCoV-229E [1]; pre-treated 3 h or post-treated 4 h, MOI 1, Figure 3
  effect when cells were treated before or after the infection (in words): did not observe a significant difference
Vero E6 cells; 48 h
  cytotoxicity on Vero E6 cells (in words): toxic; also recorded: high cytotoxicity
HCoV-229E [2]
  EC50: 3.3 µM

## CCN(CC)C(=S)SSC(=S)N(CC)CC [Disulfiram, disulfiram]
HCoV-229E [1]; HCoV-229E, MRC5 cells
  SI (selectivity index, CC50/EC50): 60.56
HCoV-229E [1]; [12]
  EC50: 0.000139 mM
[3]; MRC5 cells
  CC50 at 48 h: 8.4 µM
MRC5 cells
  cytotoxicity (in words): highly cytotoxic

## CN(C)C(=O)C(CCN1CCC(O)(c2ccc(Cl)cc2)CC1)(c1ccccc1)c1ccccc1 [Loperamide, loperamide]
[3]
  CC50 at 48 h: 10.1 µM
MRC5 cells
  cytotoxicity (in words): highly cytotoxic

## CO[C@H]1C[C@@H]2CC[C@@H](C)[C@@](O)(O2)C(=O)C(=O)N2CCCC[C@H]2C(=O)O[C@H]([C@H](C)C[C@@H]2CC[C@@H](O)[C@H](OC)C2)CC(=O)[C@H](C)/C=C(\C)[C@@H](O)[C@@H](OC)C(=O)[C@H](C)C[C@H](C)/C=C/C=C/C=C/1C [Rapamycin, rapamycin]
HCoV-229E [1]; Human coronavirus 229E, MRC5, 48 h
  EC50: 0.00228 mM
MERS-CoV
  reduction of MERS-CoV infection: over 60%
In vitro
  CC50 at 48 h: 2.5 µM
MRC5 cells
  cytotoxicity (in words): highly cytotoxic

## Oc1ccc(/C=C/c2cc(O)cc(O)c2)cc1 [Resveratrol, resveratrol]
HCoV-229E [1]; HCoV-229E
  reduction of the viral titer: 80%
[4]
  CC50 at 48 h: 48.2 µM
Vero E6 cells; in vitro, Vero E6
  non-cytotoxic doses: up to 25 µM
SARS-CoV-2 [5]
  EC50: 4.48 µM
SARS-CoV-2 [6]
  replication of SARS-CoV-2 (in words): inhibited the replication
Lung cancer
  reduction of tumor multiplicity: 27%
  reduction of tumor volume: 45%
[7]
  Tmax: 1.3 h
[8]
  bioavailability (in words): poor bioavailability
SARS-CoV-2 [9]; 25 µM, Vero E6 cells
  inhibition of SARS-CoV-2 replication: 3 logs
SARS-CoV-2 [9]; [13]
  EC50: 10.7 µM
  EC90: 11.4 µM

## CCCC(CCC)C(=O)O [VPA, valproic acid]
HCoV-229E [1]; Human coronavirus 229E, MRC5, 48 h, HCoV-229E in MRC5 cells, PFU assay after 48 h, value in mM
  EC50: 1.34 mM
[3]; MRC5 cells
  CC50 at 48 h: 4000 µM
MRC5 cells
  cytotoxicity (in words): highly cytotoxic

## CCN(CCO)CCCC(C)Nc1ccnc2cc(Cl)ccc12 (stereo not shown) [hydroxychloroquine]
SARS-CoV-2 [10]
  EC90: 5.47 µM

## Cc1cccc(C)c1OCC(=O)N[C@@H](Cc1ccccc1)[C@@H](O)C[C@H](Cc1ccccc1)NC(=O)[C@H](C(C)C)N1CCCNC1=O [lopinavir]
HCoV-229E [1]; HCoV-229E in MRC5 cells, high titer MOI = 1, PFU assay after 48 h, read-out: EC50
  EC50: 0.0088 mM
HCoV-229E [1]; Human coronavirus 229E, MRC5, 48 h, HCoV-229E in MRC5 cells, high titer MOI = 1, PFU assay after 48 h
  EC50: 0.00881 mM

## COc1cc(/C=C/c2ccc(O)cc2)cc(OC)c1 [pterostilbene]
SARS-CoV-2 [6]
  replication of SARS-CoV-2 (in words): inhibited the replication

## CC(C)c1nc(CN(C)C(=O)N[C@H](C(=O)N[C@@H](Cc2ccccc2)C[C@H](O)[C@H](Cc2ccccc2)NC(=O)OCc2cncs2)C(C)C)cs1 [ritonavir]
[11]
  anti-CoV activity (in words): no selective anti-CoV activity
